Data from ChEMBL document CHEMBL1687880, “Synthesis of cell-permeable stapled peptide dual inhibitors of the p53-Mdm2/Mdmx interactions via photoinduced cycloaddition” (Bioorg Med Chem Lett, 2011).
Active and inactive are the calls of the source. The calls are words filed in the database; no cut-off is given here. Non-standard residues stand in square brackets, D forms with d. Residues, ends and D or L forms follow the SMILES beside them. *: point of attachment. Tetrazole5CO(2-(4-MeOPh)) = COc1ccc(-n2nnc(C(=O)*)n2)cc1; Trp(6-Cl) = N[C@@H](Cc1c[nH]c2cc(Cl)ccc12)C(=O)O; X1 = COc1ccc(N2N=C(C(=O)*)CC2C(N)=O)cc1; Methacryloyl = C=C(C)C(=O)*

What follows are molecules tested on U2OS (assay: Induction of p53-dependent luciferase activity in human U2OS cells at 20 uM).
Assay type: functional, cell-based

Row | Molecule | Activity
1 | COc1ccc(N2N=C(C(=O)NCCCC[C@H](NC(=O)[C@H](CC(C)C)NC(=O)[C@H](CCC(N)=O)NC(=O)[C@H](CCCNC(=N)N)NC(=O)[C@H](Cc3c[nH]c4ccccc34)NC(=O)[C@H](Cc3ccc(O)cc3)NC(=O)[C@H](CCCNC(=N)N)NC(=O)[C@H](CCCCNC(C)=O)NC(=O)[C@H](Cc3ccccc3)NC(=O)[C@@H](NC(=O)[C@H](CC(C)C)NC(C)=O)[C@@H](C)O)C(=O)N[C@@H](CO)C(N)=O)CC2C(N)=O)cc1 (some centres not stated) (Ac-LTFK(Ac)RYWRQLK(X1)S-NH2) | inactive
2 | Ac-LTFEHYWAQLTS-NH2 | inactive

Each molecule was assayed on U2OS (assay: Drug uptake in human U2OS cells at 20 uM after 4 hrs by fluorescence microscopy).
Assay type: ADME, cell-based

Row | Molecule | Drug uptake
3 | COc1ccc(N2N=C(C(=O)NCCCC[C@H](NC(=O)[C@H](CC(C)C)NC(=O)[C@H](CCC(N)=O)NC(=O)[C@H](CCCNC(=N)N)NC(=O)[C@H](Cc3c[nH]c4ccccc34)NC(=O)[C@H](Cc3ccc(O)cc3)NC(=O)[C@H](CCCNC(=N)N)NC(=O)[C@H](CCCCNC(C)=O)NC(=O)[C@H](Cc3ccccc3)NC(=O)[C@@H](NC(=O)[C@H](CC(C)C)NC(C)=O)[C@@H](C)O)C(=O)N[C@@H](CO)C(N)=O)CC2C(N)=O)cc1 (some centres not stated) (Ac-LTFK(Ac)RYWRQLK(X1)S-NH2) | Active
4 | C=C(C)C(=O)NCCCC[C@H](NC(=O)[C@H](Cc1ccccc1)NC(=O)[C@@H](NC(=O)[C@H](CC(C)C)NC(C)=O)[C@@H](C)O)C(=O)N[C@@H](CCCNC(=N)N)C(=O)N[C@@H](Cc1ccc(O)cc1)C(=O)N[C@@H](Cc1c[nH]c2ccccc12)C(=O)N[C@@H](CCCNC(=N)N)C(=O)N[C@@H](CCC(N)=O)C(=O)N[C@@H](CC(C)C)C(=O)N[C@@H](CCCCNC(=O)c1nnn(-c2ccc(OC)cc2)n1)C(=O)N[C@@H](CO)C(N)=O (Ac-LTFK(Methacryloyl)RYWRQLK(Tetrazole5CO(2-(4-MeOPh)))S-NH2) | Active
5 | C=C(C)C(=O)NCCCC[C@H](NC(=O)[C@H](Cc1ccccc1)NC(=O)[C@@H](NC(=O)[C@H](CC(C)C)NC(C)=O)[C@@H](C)O)C(=O)N[C@@H](Cc1cnc[nH]1)C(=O)N[C@@H](Cc1ccc(O)cc1)C(=O)N[C@@H](Cc1c[nH]c2ccccc12)C(=O)N[C@@H](C)C(=O)N[C@@H](CCCN=C(N)N)C(=O)N[C@@H](CC(C)C)C(=O)N[C@@H](CCCCNC(=O)c1nnn(-c2ccc(OC)cc2)n1)C(=O)N[C@@H](CO)C(N)=O | Active
6 | C=C(C)C(=O)NCCCC[C@H](NC(=O)[C@H](Cc1ccccc1)NC(=O)[C@@H](NC(=O)[C@H](CC(C)C)NC(C)=O)[C@@H](C)O)C(=O)N[C@@H](CCCN=C(N)N)C(=O)N[C@@H](Cc1ccc(O)cc1)C(=O)N[C@@H](Cc1c[nH]c2ccccc12)C(=O)N[C@@H](C)C(=O)N[C@@H](CCCN=C(N)N)C(=O)N[C@@H](CC(C)C)C(=O)N[C@@H](CCCCNC(=O)c1nnn(-c2ccc(OC)cc2)n1)C(=O)N[C@@H](CO)C(N)=O (Ac-LTFK(Methacryloyl)RYWARLK(Tetrazole5CO(2-(4-MeOPh)))S-NH2) | Active
7 | C=C(C)C(=O)NCCCC[C@H](NC(=O)[C@H](Cc1ccccc1)NC(=O)[C@@H](NC(=O)[C@H](CC(C)C)NC(C)=O)[C@@H](C)O)C(=O)N[C@@H](CCCN=C(N)N)C(=O)N[C@@H](Cc1ccc(O)cc1)C(=O)N[C@@H](Cc1c[nH]c2cc(Cl)ccc12)C(=O)N[C@@H](CCCN=C(N)N)C(=O)N[C@@H](CCC(N)=O)C(=O)N[C@@H](CC(C)C)C(=O)N[C@@H](CCCCNC(=O)c1nnn(-c2ccc(OC)cc2)n1)C(=O)N[C@@H](CO)C(N)=O (Ac-LTFK(Methacryloyl)RY[Trp(6-Cl)]RQLK(Tetrazole5CO(2-(4-MeOPh)))S-NH2) | Active
8 | C=C(C)C(=O)NCCCC[C@H](NC(=O)[C@H](Cc1ccccc1)NC(=O)[C@@H](NC(=O)[C@H](CC(C)C)NC(C)=O)[C@@H](C)O)C(=O)N[C@@H](Cc1cnc[nH]1)C(=O)N[C@@H](Cc1ccc(O)cc1)C(=O)N[C@@H](Cc1c[nH]c2ccccc12)C(=O)N[C@@H](CCCN=C(N)N)C(=O)N[C@@H](CCC(N)=O)C(=O)N[C@@H](CC(C)C)C(=O)N[C@@H](CCCCNC(=O)c1nnn(-c2ccc(OC)cc2)n1)C(=O)N[C@@H](CO)C(N)=O | Active

Each molecule was assayed against E3 ubiquitin-protein ligase Mdm2 (Homo sapiens, UniProt Q00987) (assay: Inhibition of human GST-tagged Mdm2 expressed in Escherichia coli harboring integrated p53-Mmd2 protein assessed as blockade of enzyme-p53 interaction by ELISA assay).
Chain of E3 ubiquitin-protein ligase Mdm2 (Q00987 whole entry): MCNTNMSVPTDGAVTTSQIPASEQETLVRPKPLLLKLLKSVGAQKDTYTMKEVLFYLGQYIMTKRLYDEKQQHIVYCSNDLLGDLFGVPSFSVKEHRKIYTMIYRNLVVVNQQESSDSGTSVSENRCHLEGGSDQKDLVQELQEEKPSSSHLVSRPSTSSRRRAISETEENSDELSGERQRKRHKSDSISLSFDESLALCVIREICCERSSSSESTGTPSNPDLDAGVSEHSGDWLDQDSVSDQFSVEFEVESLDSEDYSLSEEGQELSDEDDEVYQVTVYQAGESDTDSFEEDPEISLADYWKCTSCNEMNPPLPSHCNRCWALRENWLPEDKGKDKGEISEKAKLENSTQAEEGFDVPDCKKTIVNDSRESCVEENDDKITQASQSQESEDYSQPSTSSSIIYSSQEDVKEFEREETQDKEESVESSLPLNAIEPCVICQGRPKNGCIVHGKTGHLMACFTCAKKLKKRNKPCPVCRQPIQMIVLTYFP

Row | Molecule | IC50 [nM]
9 | Ac-LTFEHYWAK(Ac)LTS-NH2 | < 48
10 | CC(=O)NCCCC[C@H](NC(=O)[C@H](CC(C)C)NC(=O)[C@H](CCC(N)=O)NC(=O)[C@H](C)NC(=O)[C@H](Cc1c[nH]c2ccccc12)NC(=O)[C@H](Cc1ccc(O)cc1)NC(=O)[C@H](Cc1cnc[nH]1)NC(=O)[C@H](CCC(=O)O)NC(=O)[C@H](Cc1ccccc1)NC(=O)[C@@H](NC(=O)[C@H](CC(C)C)NC(C)=O)[C@@H](C)O)C(=O)N[C@@H](CO)C(N)=O | < 48
11 | CC(=O)NCCCC[C@H](NC(=O)[C@H](Cc1ccccc1)NC(=O)[C@@H](NC(=O)[C@H](CC(C)C)NC(C)=O)[C@@H](C)O)C(=O)N[C@@H](Cc1cnc[nH]1)C(=O)N[C@@H](Cc1ccc(O)cc1)C(=O)N[C@@H](Cc1c[nH]c2ccccc12)C(=O)N[C@@H](C)C(=O)N[C@@H](CCC(N)=O)C(=O)N[C@@H](CC(C)C)C(=O)N[C@H](C(=O)N[C@@H](CO)C(N)=O)[C@@H](C)O | < 10
12 | Ac-LTFEHYWK(Ac)QLTS-NH2 | < 31
